Measured values: patent publication US9617244B2, “Antibacterial quinoline derivatives” (JANSSEN PHARMACEUTICA NV, priority 2012, dated 2017)
Values after ≈ are worked out from the molar mass of the structure shown.

Columns and labels:
[1] = test system: Mycobacterium smegmatis (ATCC607); test: In-vitro anti-bacterial activity against strain M. Smegmatis ATCC607; type: cell-based; settings: 90% inhibitory concentration for bacterial growth, Alamar Blue fluorescence; for IC90 MSM 607: 48 hours; for IC90: Mycolicibacterium smegmatis, ATCC607, 48 h, read-out: IC90 MSM 607
How it was run: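 Serial five-fold compound dilutions in BSA-supplemented wells, inoculated with ~250 CFU/well in Mueller-Hinton broth, incubated 48 h at 37 °C, 5% CO2. Growth read by Alamar Blue fluorescence (ex 530/em 590 nm); IC90 in μg/ml.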

[2] = test system: Staphylococcus aureus (ATCC29213); test: In-vitro anti-bacterial activity, microtitre plate assay, IC90 determination (non-mycobacterial strains); type: cell-based; settings: 90% inhibitory concentration for bacterial growth, resazurin fluorescence; for IC90 STA B29213: 24 hours; for IC90: Staphylococcus aureus, ATCC29213, 24 h, read-out: IC90 STA B29213
How it was run: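 Inoculum of about 100 TCID50 (10–60 CFU/well) in Mueller-Hinton broth, serial five-fold compound dilutions, 24 h at 37 °C in air. Growth read by resazurin fluorescence (ex 530/em 590 nm); IC90 in μg/ml as 90% growth inhibition.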

Compound	IC90 MSM 607 [1] [µg/mL]	melting point [°C]	IC90 STA B29213 [2] [µg/mL]	IC90 [1] [µg/mL]	IC90 [2] [µg/mL]
COc1nc2ccc(Br)cc2cc1C(c1ccc(Cl)cc1)C1(O)CCNC(Cc2ccc(F)cc2F)C1 (stereo not drawn) [Compound 320]	2.95 (≈ 5.02 µM)	159	3.71 (≈ 6.31 µM)		
C=CC1CC(O)(C(c2ccc(Cl)cc2)c2cc3cc(Br)ccc3nc2OC)CCN1 (stereo not drawn) [Compound 373]	3.08 (≈ 6.31 µM)	193	3.08 (≈ 6.31 µM)		
COc1nc2ccc(Br)cc2cc1C(c1ccccc1)C1(O)CCNCC1C (stereo not drawn) [Compound 425]		125		> 11.1	> 11.1
COc1nc2ccc(Br)cc2cc1C(c1ccccc1)C1(O)CCNC(c2ccc(F)cc2C)C1 (stereo not drawn) [Compound 193]	5.35 (≈ 9.99 µM)	147	5.35 (≈ 9.99 µM)		
COc1nc2ccc(S(C)(=O)=O)cc2cc1C(c1ccc(Cl)cc1)C1(O)CCNC(c2ccc3ccccc3c2)C1 (stereo not drawn) [Compound 459]	3.70 (≈ 6.3 µM)	211	13.14 (≈ 22.4 µM)		
COc1nc2ccc(Cl)cc2cc1C(c1ccc(SC)cc1)C1(O)CCNC(c2ccc(F)cc2C)C1 (stereo not drawn) [Compound 352]	0.85 (≈ 1.58 µM)	123 to 125	1.70 (≈ 3.17 µM)		
COc1nc2ccc(S(=O)(=O)C(C)C)cc2cc1C(c1ccc(Cl)cc1)C1(O)CCNC(Cc2ccccc2)C1 (stereo not drawn) [Compound 386]	2.90 (≈ 5.01 µM)	125	3.65 (≈ 6.3 µM)		
COc1nc2ccc(Br)cc2cc1C(c1ccccc1)C1(O)CCNC(c2ccc(F)cc2C)C1 (stereo not drawn) [Compound 194]	2.68 (≈ 5.01 µM)	149	1.69 (≈ 3.16 µM)		
COc1nc2ccc(Br)cc2cc1C(c1ccc(Cl)cc1)C1(O)CCNC(C)C1 (stereo not drawn) [Compound 124]		164		3 (≈ 6.3 µM)	3 (≈ 6.3 µM)
COc1nc2ccc(Cl)cc2cc1C(c1ccc(Cl)cc1)C1(O)CCNC(Cc2ccccc2)C1 (stereo not drawn) [Compound 96]		114	1.60 (≈ 3.15 µM)	1.01 (≈ 1.99 µM)	
CSc1ccc2[nH]c(=O)c(C(c3ccccc3)C3(O)CCNC(c4ccc(F)cc4C)C3)cc2c1 (stereo not drawn) [Compound 178]	4.89 (≈ 10 µM)	> 250	6.15 (≈ 12.6 µM)		
COc1nc2ccc(Cl)cc2cc1C(c1ccc(Cl)cc1)C1(O)CCNC(Cc2cccnc2)C1 (stereo not drawn) [Compound 467]		148		2.55 (≈ 5.02 µM)	3.21 (≈ 6.31 µM)
COc1nc2ccc(Br)cc2cc1C(c1ccc(SC)cc1)C1(O)CCNC(Cc2ccccc2)C1 (stereo not drawn) [Compound 100]	7.09 (≈ 12.6 µM)	143	7.09 (≈ 12.6 µM)		
COc1nc2ccc(Cl)cc2cc1C(c1ccc(Cl)cc1)C1(O)CCNC(c2ccc(F)cc2C)C1 (single isomer, unassigned) [Compound 3]	0.83 (≈ 1.58 µM)	146	0.83 (≈ 1.58 µM)		
COc1nc2ccc(Cl)cc2cc1C(c1ccc(Cl)cc1)C1(O)CCNCC1Cc1ccccn1 (stereo not drawn) [Compound 434]	3.21 (≈ 6.31 µM)	197	3.21 (≈ 6.31 µM)		
COc1nc2ccc(Cl)cc2cc1C(c1ccc(S(C)(=O)=O)cc1)C1(O)CCNC(c2ccc(F)cc2C)C1 (stereo not drawn) [Compound 366]	3.59 (≈ 6.31 µM)	146	7.16 (≈ 12.6 µM)		
COc1nc2ccc(Br)cc2cc1C(c1cccc(Cl)c1)C1(O)CCNC(Cc2ccccc2)C1 (stereo not drawn) [Compound 34]	2.20 (≈ 3.99 µM)	152	3.48 (≈ 6.31 µM)		
COc1nc2ccc(SC)cc2cc1C(c1ccc(Cl)cc1)C1(O)CCNC(Cc2ccc(F)cc2)C1 (stereo not drawn) [Compound 300]	1.70 (≈ 3.17 µM)	90	1.07 (≈ 1.99 µM)		
COc1nc2ccc(Br)cc2cc1C(c1ccc(Cl)cc1)C1(O)CCNC(Cc2ccccc2)C1 (stereo not drawn) [Compound 33]	>3.48	177	3.48 (≈ 6.31 µM)		

Compound	IC90 MSM 607 [1] [µg/mL]	melting point [°C]	IC90 STA B29213 [2] [µg/mL]	IC90 [1] [µg/mL]	IC90 [2] [µg/mL]
COc1nc2ccc(S(C)(=O)=O)cc2cc1C(c1ccccc1)C1(O)CCNC(c2ccc(F)cc2C)C1 (stereo not drawn) [Compound 184]		172		13.4 (≈ 25.1 µM)	13.4 (≈ 25.1 µM)
COc1nc2ccc(F)cc2cc1C(c1ccc(Cl)cc1)C1(O)CCNC(Cc2ccccc2)C1 (stereo not drawn) [Compound 53]	2.46 (≈ 5.01 µM)	102	1.55 (≈ 3.16 µM)		
COc1nc2ccc(S(C)(=O)=O)cc2cc1C(c1ccc(Cl)cc1)C1(O)CCNC(c2ccc3ccccc3c2)C1 (stereo not drawn) [Compound 464]	1.17 (≈ 1.99 µM)	154	1.47 (≈ 2.5 µM)		
CCCN(C)CC1CC(O)(C(c2ccc(Cl)cc2)c2cc3cc(Cl)ccc3nc2OC)CCN1 (stereo not drawn) [Compound 63]	1.59 (≈ 3.16 µM)	157	3.17 (≈ 6.31 µM)		
COc1nc2ccc(Cl)cc2cc1C(c1ccc(Cl)cc1)C1(O)CCNCC1F (stereo not drawn) [Compound 449]	2.75 (≈ 6.32 µM)	190	5.48 (≈ 12.6 µM)		
COc1nc2ccc(SC)cc2cc1C(c1ccc(Cl)cc1)C1(O)CCNC(Cc2ccc(F)cc2)C1 (stereo not drawn) [Compound 301]	6.76 (≈ 12.6 µM)	170	6.76 (≈ 12.6 µM)		
COc1nc2ccc(Br)cc2cc1C(c1ccc(Cl)cc1)C1(O)CCNC(CC2CCCCC2)C1 (stereo not drawn) [Compound 256]	2.22 (≈ 3.98 µM)	118	2.49 (≈ 4.46 µM)		
CS(=O)(=O)c1ccc2[nH]c(=O)c(C(c3ccccc3)C3(O)CCNC(Cc4ccccc4)C3)cc2c1 (stereo not drawn) [Compound 153]		183		> 12.6	> 12.6
COc1nc2ccc(Br)cc2cc1C(c1ccc(Cl)cc1)C1(O)CCNC(CC2CCCCC2)C1 (stereo not drawn) [Compound 259]	1.40 (≈ 2.51 µM)	168	1.76 (≈ 3.15 µM)		
COc1nc2ccc(SC)cc2cc1C(c1ccc(Cl)cc1)C1(O)CCNC(Cc2ccc(F)c(F)c2)C1 (stereo not drawn) [Compound 191]	3.50 (≈ 6.31 µM)	162	3.50 (≈ 6.31 µM)		
COc1nc2ccc(Cl)cc2cc1C(c1ccc(Cl)cc1)C1(O)CCNC(Cc2ccccc2)C1 (stereo not drawn) [Compound 37]	0.90 (≈ 1.77 µM)	107	1.14 (≈ 2.25 µM)		
CSc1ccc2[nH]c(=O)c(C(c3ccc(Cl)cc3)C3(O)CCNC(Cc4ccc(F)c(F)c4)C3)cc2c1 (stereo not drawn) [Compound 203]		> 250	10.80 (≈ 20 µM)	6.81 (≈ 12.6 µM)	
COc1nc2ccc(S(C)(=O)=O)cc2cc1C(c1ccc(Cl)cc1)C1(O)CCNCC1Cc1cccc[n+]1[O-] (stereo not drawn) [Compound 447]	>14.27	234	>14.27		
COc1nc2ccc(S(C)(=O)=O)cc2cc1C(c1ccc(Cl)cc1)C1(O)CCNC(c2ccc(F)cc2C)C1 (stereo not drawn) [Compound 199]	7.16 (≈ 12.6 µM)	192	7.16 (≈ 12.6 µM)		
COc1nc2ccc(Br)cc2cc1C(c1ccc(Cl)cc1)C1(O)CCNC(Cc2ccc(F)cc2)C1 (stereo not drawn) [Compound 339]	1.80 (≈ 3.16 µM)	176	3.60 (≈ 6.32 µM)		
COc1nc2ccc(SC)cc2cc1C(c1ccccc1)C1(O)CCNC(Cc2ccccc2)C1 (stereo not drawn) [Compound 142]	2.16 (≈ 4.46 µM)	190	3.06 (≈ 6.31 µM)		
COc1nc2ccc(S(C)(=O)=O)cc2cc1C(c1ccc(Cl)cc1)C1(O)CCNC(c2ccc3ccccc3c2)C1 (stereo not drawn) [Compound 466]	1.47 (≈ 2.5 µM)	188	3.70 (≈ 6.3 µM)		
CN1CCC(O)(C(c2ccc(Cl)cc2)c2cc3cc(Br)ccc3[nH]c2=O)CC1Cc1ccccc1 (stereo not drawn) [Compound 84]		238		5.52 (≈ 10 µM)	6.95 (≈ 12.6 µM)
